# According to patent US10736968B2, “Cellular signalling inhibitors, their formulations and methods thereof” (INVICTUS ONCOLOGY PVT. LTD., priority 2016, dated 2020):
# System: 4T1 breast cancer
# Assay: 4T1 breast cancer model (tumor growth, lung metastatic nodules, survival)
# Format: in vivo, Balb/c mice
# Details: for number of metastatic nodules in lungs: lungs harvested on day 12
# From the text: FIG. 7. Effect of BLN101 on breast tumor growth inhibition. To validate the therapeutic efficacy of BLN101 (as AK750 formulation), we randomly sorted mice bearing 4T1 breast cancer into four groups and treated each group with one of the following: blank vehicle (control); AK750; an antiCSF1 antibody, and BLZ945. Treatment was strated when the tumors reached −75 mm^3 in volume. The day of first injection is considered Day 0). Vehicle-treated animals formed large tumors by Day 12, and consequently were killed. The animals in the other groups were also killed at the same time point to evaluate the effect of the treatments on tumor pathology. […] (b) Changes in body weight were within the acceptable limits.
# Later, macrophages are isolated from the tumors and analyzed the cells for expression of markers CD11b+CD206+, CD11b+MHC-II+, CD11b+CD86+ and CD11b+CD80+ on the cells using flow cytometry. […] The tumor-bearing animals are injected with three doses of either Vehicle (for control group), 45 mg/kg of free BLZ-945, 45 mg/kg of BLN101 (in a AK750 formulation), or 25 mg/kg of CSF-1 neutralizing antibody, on day 0, day 4 and day 8. First day of treatment was considered as Day 0. […] Number of metastatic nodules present in the lungs is also quantified. Lungs were harvested from the mice on day 12 following the above treatment, washed with cold PBS followed by which the number of metastatic nodules were counted. […] Later, macrophages are isolated from the tumors and analyzed the cells for expression of markers CD11b+CD206+, CD11b+MHC-II+, CD11b+CD86+ on the cells using flow cytometry. […] SIRPα is a ‘eat-me-not’ signaling, which cancer cells engage with a CD47 ligand, and prevents phagocytosis of the cancer cells. The antibody that inhibits SIRPα was conjugated to the PEG chains on the surface of the AK750 supramolecular nanoparticles. A non-specific IgG was used as controls. […] Furthermore, melanoma-bearing mice is treated with a single dose of SIRPα antibody, AK750 or the SIRPα-AK750. […]
Structure (SMILES),number of metastatic nodules in lungs,"tumor growth / progression (45 mg/kg on day 0, day 4 and day 8)"
CNC(=O)c1cc(Oc2ccc3nc(NC4CCCC[C@H]4OC(=O)CCC(=O)O[C@H]4CC[C@@]5(C)C(=CC[C@H]6[C@@H]7CC[C@H](C(C)CCCC(C)C)[C@@]7(C)CC[C@@H]65)C4)sc3c2)ccn1 (stereo in doubt) [BLN101],complete inhibition of formation of metastatic nodules,–
CNC(=O)c1cc(Oc2ccc3nc(N[C@@H]4CCCC[C@H]4O)sc3c2)ccn1 [BLZ-945],reduction as compared to CSF-1 neutralizing antibody and the vehicle control,decreased tumor growth compared with vehicle-treated animals
